Reference: US9174969B2, “Indoline scaffold SHP-2 inhibitors and cancer treatment method” (UNIVERSITY OF SOUTH FLORIDA, priority 2008, dated 2015)

molecular target: Shp1 (Homo sapiens (Human), UniProt P29350); assay: not given; conditions: background statement, non-selective; cited from earlier work
Sequence (P29350 whole entry): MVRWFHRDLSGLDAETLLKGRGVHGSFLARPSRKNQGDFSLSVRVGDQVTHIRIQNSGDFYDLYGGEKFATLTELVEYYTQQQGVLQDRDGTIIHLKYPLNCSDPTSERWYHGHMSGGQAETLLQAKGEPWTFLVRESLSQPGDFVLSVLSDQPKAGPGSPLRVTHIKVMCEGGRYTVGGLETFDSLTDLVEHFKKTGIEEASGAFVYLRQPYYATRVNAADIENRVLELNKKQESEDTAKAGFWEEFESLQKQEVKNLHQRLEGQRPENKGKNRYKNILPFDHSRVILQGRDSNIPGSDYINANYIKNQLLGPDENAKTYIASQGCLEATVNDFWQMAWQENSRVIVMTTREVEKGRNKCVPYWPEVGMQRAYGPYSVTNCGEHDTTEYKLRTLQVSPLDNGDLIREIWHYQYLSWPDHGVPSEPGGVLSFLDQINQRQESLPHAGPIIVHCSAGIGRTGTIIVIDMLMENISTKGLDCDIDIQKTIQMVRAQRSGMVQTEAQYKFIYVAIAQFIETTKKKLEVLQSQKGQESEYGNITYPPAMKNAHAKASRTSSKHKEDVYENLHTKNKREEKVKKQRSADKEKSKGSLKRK

In the case of `CCOc1ccc(NC(=O)CN2C(=O)/C(=C3\SC(=S)C(CCS(=O)(=O)O)C3=O)c3ccccc32)cc1` (centres unmarked) [CDL 4340-0580], the “inhibition of Shp1” value is given as “also inhibit tumor suppressor Shp1”.

molecular target: T1, Shp2 (Homo sapiens (Human), UniProt Q06124); assay: not given; conditions: background statement; cited from earlier work

In the case of `CCOc1ccc(NC(=O)CN2C(=O)/C(=C3\SC(=S)C(CCS(=O)(=O)O)C3=O)c3ccccc32)cc1` (centres unmarked) [CDL 4340-0580], the “inhibition of Shp2” value is given as “ability to inhibit Shp2”.

molecular target: T1, Shp2; assay: in vitro phosphotyrosine phosphatase activity (DiFMUP) assay; type: biochemical; conditions: mean ± spread over n tests
Description: All reagents were purchased from commercial suppliers and used without further purification. Melting points were determined using a Barnstead international melting point apparatus and remain uncorrected. ^1H NMR spectra were recorded on a Varian Mercury 400 MHz spectrometer with CDCl3 or DMSO-d6 as the solvent. ^13C NMR spectra are recorded at 100 MHz. All coupling constants are measured in Hertz (Hz) and the chemical shifts (δH and δC) are quoted in parts per million (ppm) relative to TMS (δ0), which was used as the internal standard. High resolution mass spectroscopy was carried out on an Agilent 6210 LC/MS (ESI-TOF). Microwave reactions were performed in CEM 908005 model and Biotage initiator 8 machines. HPLC analysis was performed using a JASCO HPLC system equipped with a PU-2089 Plus quaternary gradient pump and a UV-2075 Plus UV-VIS detector, using an Alitech Kromasil C-18 column (150×4.6 mm, 5 μm). Thin layer chromatography was performed using silica gel 60 F254 plates (Fisher), with observation under UV when necessary. Anhydrous solvents (acetonitrile, dimethyl formamide, ethanol, isopropanol, methanol and tetrahydrofuran) were used as purchased from Aldrich. HPLC grade solvents (methanol, acetonitrile and water) were purchased from Burdick and Jackson for HPLC and mass analysis.

In order of falling IC50:
1. 4-(6-(4-(3-Chlorophenyl)piperazin-1-ylsulfonyl)-3,4-dihydroquinolin-1(2H)-yl)-4-oxobutanoic acid [JHE-02-023]  37.3 ± 5.3 µM
2. O=C(O)CCC(=O)N1CCc2cc(S(=O)(=O)N3CCN(c4ccc(F)cc4)CC3)ccc21 [XW2-011B, 4-(5-(4-(4-Fluorophenyl)piperazin-1-ylsulfonyl)indolin-1-yl)-4-oxobutanoic acid]  31.9 ± 10 µM
3. CCC(C)C(NC(=O)N1CCc2cc(S(=O)(=O)N3CCN(c4cccc(Cl)c4)CC3)ccc21)C(=O)OC (centres unmarked) [JHE-02-029A, Methyl 2-(5-(4-(3-chlorophenyl)piperazin-1-ylsulfonyl)indoline-1-carboxamido)-3-methylpentanoate]  12.7 ± 0.7 µM
4. CCOC(=O)CCNC(=O)N1CCc2cc(S(=O)(=O)N3CCN(c4cccc(Cl)c4)CC3)ccc21 [JHE-02-010A, Ethyl 3-(5-(4-(3-chlorophenyl)piperazin-1-ylsulfonyl)indoline-1-carboxamido)propanoate]  9.3 ± 2.2 µM
5. O=C(C1CC1)N1CCc2cc(S(=O)(=O)N3CCN(c4cccc(Cl)c4)CC3)ccc21 [JF027, (5-(4-(3-Chlorophenyl)piperazin-1-ylsulfonyl)indolin-1-yl)(cyclopropyl)methanone]  8.5 ± 2 µM
6. O=C(O)c1ccccc1NC(=O)N1CCc2cc(S(=O)(=O)N3CCN(c4cccc(Cl)c4)CC3)ccc21 [JHE-02-020A, 2-(5-(4-(3-Chlorophenyl)piperazin-1-ylsulfonyl)indoline-1-carboxamido)benzoic acid]  8.3 ± 5.6 µM
7. O=C(c1cc(Cl)cc(Cl)c1)N1CCc2cc(S(=O)(=O)N3CCN(c4cccc(Cl)c4)CC3)ccc21 [JF025, (5-(4-(3-Chlorophenyl)piperazin-1-ylsulfonyl)indolin-1-yl)(3,5-dichlorophenyl)methanone]  8.2 ± 2.6 µM
8. CC(NC(=O)N1CCc2cc(S(=O)(=O)N3CCN(c4cccc(Cl)c4)CC3)ccc21)C(=O)O (centres unmarked) [JHE-02-017B, 2-(5-(4-(3-Chlorophenyl)piperazin-1-ylsulfonyl)indoline-1-carboxamido)propanoic acid]  6.4 ± 0.5 µM
9. CCOC(=O)C(CC(C)C)NC(=O)N1CCc2cc(S(=O)(=O)N3CCN(c4cccc(Cl)c4)CC3)ccc21 (centres unmarked) [JHE-02-012, Ethyl 2-(5-(4-(3-chlorophenyl)piperazin-1-ylsulfonyl)indoline-1-carboxamido)-4-methylpentanoate]  6 ± 2.8 µM
10. O=C(O)CCNC(=O)N1CCc2cc(S(=O)(=O)N3CCN(c4cccc(Cl)c4)CC3)ccc21 [JHE-02-017A, 3-(5-(4-(3-Chlorophenyl)piperazin-1-ylsulfonyl)indoline-1-carboxamido)propanoic acid]  4.8 ± 3.3 µM
11. O=C(O)CNC(=O)N1CCc2cc(S(=O)(=O)N3CCN(c4cccc(Cl)c4)CC3)ccc21 [JHE-01-137, 2-(5-(4-(3-Chlorophenyl)piperazin-1-ylsulfonyl)indoline-1-carboxamido)acetic acid]  4.6 ± 0.3 µM
12. O=C(O)CCC(=O)N1CCc2cc(S(=O)(=O)N3CCN(c4cc(Cl)cc(Cl)c4)CC3)ccc21 [XW2-124B, 4-(5-(4-(3,5-Dichlorophenyl)piperazin-1-ylsulfonyl)indolin-1-yl)-4-oxobutanoic acid]  4.5 ± 1.2 µM
13. O=C(O)c1cccc(NC(=O)N2CCc3cc(S(=O)(=O)N4CCN(c5cccc(Cl)c5)CC4)ccc32)c1 [JHE-02-020B, 3-(5-(4-(3-Chlorophenyl)piperazin-1-ylsulfonyl)indoline-1-carboxamido)benzoic acid]  3 ± 0.8 µM
14. O=C(O)CCCC(=O)N1CCc2cc(S(=O)(=O)N3CCN(c4cccc(Cl)c4)CC3)ccc21 [JHE-01-129B, 5-(5-(4-(3-Chlorophenyl)piperazin-1-ylsulfonyl)indolin-1-yl)-5-oxopentanoic acid]  2.8 ± 0.7 µM
15. O=C(O)CCC(=O)N1CCc2cc(S(=O)(=O)N3CCN(c4cccc(Cl)c4)CC3)ccc21 [XW2-038H, 4-(5-(4-(3-Chlorophenyl)piperazin-1-ylsulfonyl)indolin-1-yl)-4-oxobutanoic acid]  0.7 ± 0.3 µM
